Source: PMC11809514, “Investigation of the activity of 4-aminoquinolines as cysteine protease inhibitors with application in the treatment of Chagas disease” (Memórias do Instituto Oswaldo Cruz, 2025)
Read-outs that look alike come from different tables or passages of the source.

Columns and labels:
[1] = tested on: T. cruzi Tulahuen strain (amastigotes and trypomastigotes); assay: Anti-T. cruzi activity assay (amastigotes and trypomastigotes) in infected L929 cells, beta-galactosidase reporter; assay type: cell-based, Trypanosoma cruzi; settings: 96 h exposure
Experimental: Anti-T. cruzi activity assay (amastigotes and trypomastigotes) - The in vitro anti-T. cruzi activity was evaluated on L929 cells (mouse fibroblasts) infected with Tulahuen strain of the parasite expressing the Escherichia coli β-galactosidase as reporter gene according to the method described previously.[49] Briefly, for the bioassay, 4,000 L929 cells were added to each well of a 96-well microtiter plate. After an overnight incubation, 40,000 trypomastigotes were added to the cells and incubated for 2 h. Then the medium containing extracellular parasites was replaced with 200 μL of fresh medium and the plate was incubated for an additional 48 h to establish the infection. For IC50 determination, the cells were exposed to each synthesized compound at serial decreasing dilutions and the plate was incubated for 96 h. After this period, 50 μL of 500 μM chlorophenol red beta-D-galactopyranoside (CPRG) in 0.5% Nonidet P40 was added to each well, and the plate was incubated for 16 to 20 h, after which the absorbance at 570 nm was measured. Controls with uninfected cells, untreated infected cells, infected cells treated with benznidazole at 3.8 μM (positive control) or DMSO 1% were used. The results were expressed as the percentage of T. cruzi growth inhibition in compound tested cells as compared to the infected cells and untreated cells. The IC50 values were calculated by linear interpolation. Quadruplicates were run in the same plate, and the experiments were repeated at least once.
(§1) IC50 over T. cruzi and L929 cells were determined by linear interpolation and the selectivity index (SI) was calculated by the ratio of CC50 L929 cells/ IC50 T. cruzi.

[2] = tested on: L929 cells (mouse fibroblasts); assay: In vitro cytotoxicity over L929 cell line (alamarBlue); assay type: cell-based; settings: ratio CC50 L929 / IC50 T. cruzi
Experimental: (§2) In vitro cytotoxic activity test of compounds and CC 50 determination over L929 cell line - For this bioassay, 4,000 L929 cells in 200 μL of RPMI-1640 medium (pH 7.2-7.4) (Gibco BRL) plus 10% foetal bovine serum and 2 mM glutamine were added to each well of a 96-well microtiter plate that was incubated for three days at 37 °C. The medium was then replaced, and the cells were exposed to compounds at increasing concentrations starting at IC50 value for T. cruzi. After 96 h of incubation with the compounds the alamarBlueTM was added and the absorbance at 570 and 600 nm was measured after 4-6 h. Controls with untreated and DMSO 1%-treated cells were run in parallel. The results were expressed as the percent difference in the reduction between treated and untreated cells. The compound concentration that inhibits 50% of the L929 cell viability (CC50) was determined. Quadruplicates were run in the same plate and the experiments were repeated at least once.
as §1

cruzain = settings: cited from earlier work
mammalian cathepsin B = tested on: mammalian cathepsin B; set-up: method as in PMID 28215783, PMID 32116030; settings: cited from earlier work
mammalian cathepsin S = tested on: mammalian cathepsin S; set-up: method as in PMID 28215783, PMID 32116030; settings: cited from earlier work
Recombinant cruzain = target: T1, Recombinant cruzain (Trypanosoma cruzi, UniProt P25779); assay: Cruzain inhibition, cleavage of fluorogenic substrate Z-FR-AMC; assay type: biochemical; settings: for inhibition at 23 µM: compound at 23 µM
T1 construct: gift: Allison Doak and Prof Brian Shoichet (University of California San Francisco)
Experimental: (§3) Assays against cruzain and TbrCATL - Recombinant cruzain and TbrCatL were generously provided by Allison Doak and Prof Brian Shoichet (University of California San Francisco, San Francisco, CA, USA) and Prof Conor Caffrey (University of California San Diego, San Diego, CA, USA), respectively. Enzyme activity was measured by monitoring the cleavage of the fluorogenic substrate Z-Phe-Arg-amidomethylcoumarin (Z-FR-AMC) at 25 °C. Fluorescence was monitored at 340/440 nm (excitation/emission) in a Biotec 87 Synergy 2 fluorimeter. Assays were conducted in 96-well flat bottom black plates in 0.1 M sodium acetate buffer, pH 5.5, 10 mM β-mercaptoethanol, 0.01% Triton X-100, […] enzyme and 2.5 µM substrate. DMSO and 1 µM E-64 were employed as negative and positive controls, respectively, in all assays. Assays were performed in triplicate, and enzyme activity was measured for 5 min. Reported values correspond to the mean and standard error of the mean (SEM).
(§4) Compounds were initially screened at a concentration of 100 µM against cruzain with and without a 10 min pre-incubation with the enzyme. […] IC50 values were determined from two independent experiments, each with seven compounds concentrations in triplicate. Dose-response curves were built by non-linear regression with Graph Pad Prism 6.
To evaluate the effects of Triton X-100 concentration on enzyme inhibition, assays were conducted using 0.1%, 0.01% and 0% Triton X-100. To access the impact of pre-incubation of bovine serum albumin (BSA) on enzyme inhibition, compounds were incubated with BSA (4 mg/mL, for a final assay concentration of 1 mg/mL) for 10’ followed by 10’ incubation with 2 nM enzyme. Finally, Z-FR-AMC was added to each well and the fluorescence was immediately read.

[3] = In vitro cytotoxicity over L929 cell line (alamarBlue); assay type: cell-based, mouse; settings: mouse, L929 cells (mouse fibroblasts); uninfected L929 cells; 96 h incubation
Experimental: as §2, §1

Recombinant TbrCatL = target: T2, Recombinant TbrCatL (Trypanosoma brucei rhodesiense, UniProt Q95PM0); assay: TbrCatL inhibition, cleavage of fluorogenic substrate Z-FR-AMC; assay type: biochemical, T. brucei
T2 construct: gift: Prof Conor Caffrey (University of California San Diego)
Experimental: as §3, §4

[4] = 100 µM compound, 10 min pre-incubation with enzyme, 0.01% Triton X-100, read-out: % Inhibition at 100 µM (Mean ± SEM) Cruzain 10' pre-incubation
[5] = 100 µM compound, no pre-incubation, 0.01% Triton X-100, read-out: % Inhibition at 100 µM (Mean ± SEM) Cruzain No pre-incubation
[6] = 100 µM compound, 10 min pre-incubation with enzyme, read-out: % Inhibition at 100 µM (Mean ± SEM) TbrCATL 10' pre-incubation

T1 sequence (P25779 123-467): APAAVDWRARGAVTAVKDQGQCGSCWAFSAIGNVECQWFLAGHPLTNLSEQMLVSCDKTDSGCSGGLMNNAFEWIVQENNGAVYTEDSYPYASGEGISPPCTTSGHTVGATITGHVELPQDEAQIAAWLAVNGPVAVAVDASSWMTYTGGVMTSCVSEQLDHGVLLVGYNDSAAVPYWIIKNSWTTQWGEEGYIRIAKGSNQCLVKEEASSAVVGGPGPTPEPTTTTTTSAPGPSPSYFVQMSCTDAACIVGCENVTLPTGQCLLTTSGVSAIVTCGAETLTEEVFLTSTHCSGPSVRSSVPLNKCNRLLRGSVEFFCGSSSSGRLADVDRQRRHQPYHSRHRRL
T2 sequence (Q95PM0 entry or part of it): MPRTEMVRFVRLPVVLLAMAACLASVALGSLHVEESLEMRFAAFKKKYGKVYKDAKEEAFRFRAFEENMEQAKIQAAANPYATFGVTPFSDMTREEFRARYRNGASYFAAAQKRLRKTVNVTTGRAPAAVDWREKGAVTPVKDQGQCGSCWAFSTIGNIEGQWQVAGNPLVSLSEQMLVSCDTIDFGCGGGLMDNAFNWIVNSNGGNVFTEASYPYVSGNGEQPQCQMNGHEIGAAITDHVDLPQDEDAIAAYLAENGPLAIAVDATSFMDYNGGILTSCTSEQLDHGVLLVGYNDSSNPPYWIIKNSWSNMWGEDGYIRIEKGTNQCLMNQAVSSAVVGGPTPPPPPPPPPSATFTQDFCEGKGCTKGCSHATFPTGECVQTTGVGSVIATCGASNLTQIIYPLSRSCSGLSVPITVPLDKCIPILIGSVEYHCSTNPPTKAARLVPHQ

O=C(Cn1ccnc1[N+](=O)[O-])NCc1ccccc1 [Benznidazole, reference compound]
IC50 ([1]; Trypanosoma cruzi): 3.8 ± 0.8 µM
SI (selectivity index), CC50 L929 cells / IC50 T. cruzi [2]: 626

Clc1ccc2[nH]c3c(NCCCN4CCOCC4)ncnc3c2c1 [Compound 1]
IC50 (cruzain; hit from HTS): 2.5 µM
Ki (cruzain; non-covalent competitive inhibitor from HTS): 2 µM

Clc1ccc2c(NCCCN3CCOCC3)ccnc2c1 [Compound 2]
Inhibition of mammalian cathepsin B (mammalian cathepsin B): did not inhibit
Inhibition of mammalian cathepsin S (mammalian cathepsin S): did not inhibit

CC(C)(CN)CNc1ccnc2cc(Cl)ccc12 [Compound 3]
Inhibition of mammalian cathepsin B (mammalian cathepsin B): did not inhibit
Inhibition of mammalian cathepsin S (mammalian cathepsin S): did not inhibit

Clc1ccc2c(NC3CCCCC3)ccnc2c1 [Compound 4, 7-chloro-N-cyclohexylquinolin-4-amine]
inhibition at 100 µM (Recombinant cruzain; [4]): 18 ± 2%
inhibition at 100 µM (Recombinant cruzain; [5]): 19 ± 1%
IC50 ([1]; Trypanosoma cruzi): 2.57 ± 0.11 µM
CC50 at 96 h [3]: < 2.3 µM
inhibition at 100 µM (Recombinant TbrCatL; [6]): 38 ± 4%

Clc1ccc2c(NCc3ccco3)ccnc2c1 [Compound 5, 7-chloro-N-(furan-2-ylmethyl)quinolin-4-amine]
inhibition at 100 µM (Recombinant cruzain; [4]): 99 ± 1%
inhibition at 100 µM (Recombinant cruzain; [5]): 93 ± 1%
inhibition at 23 µM (Recombinant cruzain; 0.01% Triton X-100, read-out: % Inhibition of cruzain (Mean ± SEM) Triton 0.01%): 28.4 ± 2%
inhibition at 23 µM (Recombinant cruzain; 0.1% Triton X-100, read-out: % Inhibition of cruzain (Mean ± SEM) Triton 0.1%): 28.4 ± 3%
inhibition at 23 µM (Recombinant cruzain; no Triton X-100, read-out: % Inhibition of cruzain (Mean ± SEM) Triton 0%): 100 ± 1%
inhibition at 23 µM (Recombinant cruzain; pre-incubation with BSA (final 1 mg/mL), no Triton X-100, read-out: % Inhibition of cruzain (Mean ± SEM) BSA + Triton 0%): 32.2 ± 1%
IC50 (Recombinant cruzain; two independent experiments, seven concentrations in triplicate, read-out: IC50 against cruzain): 23 µM
IC50 ([1]; Trypanosoma cruzi): 143 µM
inhibition at 100 µM (Recombinant TbrCatL; [6]): 94 ± 1%
inhibition at 100 µM (Recombinant TbrCatL; 100 µM compound, no pre-incubation, read-out: % Inhibition at 100 µM (Mean ± SEM) TbrCATL No pre-incubation): 87 ± 3%
IC50 (Recombinant TbrCatL; two independent experiments, seven concentrations in triplicate, read-out: IC50 against TbrCatL): 29 µM

N-butyl-7-chloroquinolin-4-amine [Compound 6]
% Inhibition at 100 µM (Mean ± SEM) Cruzain 10' pre-incubation (Recombinant cruzain; 100 µM compound, 10 min pre-incubation with enzyme, 0.01% Triton X-100): 35 ± 1%
% Inhibition at 100 µM (Mean ± SEM) Cruzain No pre-incubation (Recombinant cruzain; 100 µM compound, no pre-incubation, 0.01% Triton X-100): 35 ± 1%
IC50 [1]: 150 µM
% Inhibition at 100 µM (Mean ± SEM) TbrCATL 10' pre-incubation (Recombinant TbrCatL; 100 µM compound, 10 min pre-incubation with enzyme): 42 ± 4%
